Measured values published in the NIST ThermoML archive (doi:10.1016/j.jct.2010.11.011).
± gives the expanded uncertainty stated by the source.

Legend:
[1] = Molar enthalpy of transition or fusion; settings: DSC
[2] = for mass density: 293 K, 101.33 kPa, Flotation in CCl4 and Heptane; for Triple point temperature: DTA

SMILES | Molar enthalpy of transition or fusion ([1]; Crystal 1) [kcal/mol] | mass density ([2]; Crystal 2) [kg/m3] | Triple point temperature ([2]; Crystal 1) [K] | Molar enthalpy of transition or fusion ([1]; Crystal) [kcal/mol] | mass density ([2]; Crystal) [kg/m3] | Triple point temperature ([2]; Crystal) [K]
CCCCCCCCCCCC(=O)[O-].[Li+] [lithium dodecanoate] | 6.26 ± 1.36 | 1060 ± 40 | 501.95 ± 1.8 | – | – | –
CCCCCCCCCCCCCCCC(=O)[O-].[Li+] [lithium hexadecanoate] | 3.77 ± 1.2 | 1050 ± 40 | 500.89 ± 2.8 | – | – | –
CCCCCCCC(=O)[O-].[Li+] [lithium octanoate] | – | – | – | 5.6 ± 0.227 | 1080 ± 40 | 536.8 ± 0.7
CCCCCCCCCCCCCCC(=O)[O-].[Li+] [lithium pentadecanoate] | 3.86 ± 0.263 | 1100 ± 40 | 501.25 ± 0.39 | – | – | –
CCCCCCCCCCC(=O)[O-].[Li+] [lithium undecanoate] | – | 1120 ± 50 | – | 5.85 ± 0.203 | – | 507.27 ± 3.1

Further lines, results first:

Molar enthalpy of transition or fusion ([1]; Crystal 1) [kcal/mol] | mass density ([2]; Crystal 2) [kg/m3] | Triple point temperature ([2]; Crystal 1) [K] | Molar enthalpy of transition or fusion ([1]; Crystal) [kcal/mol] | mass density ([2]; Crystal) [kg/m3] | Triple point temperature ([2]; Crystal) [K] | SMILES
5.92 ± 1.43 | 1080 ± 40 | 516.6 ± 1.3 | – | – | – | CCCCCCCCCC(=O)[O-].[Li+] [lithium decanoate]
3.2 ± 0.502 | 1090 ± 40 | 498.85 ± 0.59 | – | – | – | CCCCCCCCCCCCCCCCC(=O)[O-].[Li+] [lithium heptadecanoate]
3.69 ± 1.17 | 1080 ± 40 | 496.35 ± 1.2 | – | – | – | CCCCCCCCCCCCCCCCCCC(=O)[O-].[Li+] [lithium nonadecanoate]
5.4 ± 0.406 | 1120 ± 50 | 524.1 ± 1.2 | – | – | – | CCCCCCCCC(=O)[O-].[Li+] [lithium nonanoate]
4.05 ± 0.311 | 1040 ± 40 | 499.85 ± 0.59 | – | – | – | CCCCCCCCCCCCCCCCCC(=O)[O-].[Li+] [lithium octadecanoate]
6.06 ± 8.6 | 1050 ± 40 | 502.4 ± 1 | – | – | – | CCCCCCCCCCCCCC(=O)[O-].[Li+] [lithium tetradecanoate]
3.32 ± 0.55 | 1100 ± 40 | 504.27 ± 0.4 | – | – | – | CCCCCCCCCCCCC(=O)[O-].[Li+] [lithium tridecanoate]
